14 compounds from ChEMBL document CHEMBL4706534, “1,2,3-Triazole-containing hybrids with potential antibacterial activity against methicillin-resistant Staphylococcus aureus (MRSA)” (Eur J Med Chem, 2020) can be followed below.

In brackets after ≈: the same amount, converted by molar mass.

Test [1] concerns Staphylococcus aureus. The test is described as follows: Antibiofilm activity against methicillin-resistant Staphylococcus aureus ATCC BAA-44 incubated for 24 hrs by crystal violet-staining based assay. It counts as functional, organism-based. Particulars: ATCC BAA-44, 24 h.
Test [2] has as its system Staphylococcus aureus. The test is described as follows: Potentiation of oxacillin-induced antibacterial activity against methicillin-resistant Staphylococcus aureus ATCC BAA-44 assessed as reduction in oxacillin MIC preincubated for 30 mins followed by oxacillin addition and measured after 16 hrs by broth microdilution method. Conditions: time 16.5 hrs. In kind it is functional. In general terms: In broth dilution the organism is exposed to a series of concentrations in liquid medium.

For test [3], the system named is Staphylococcus aureus. Description: Antibacterial activity against Methicillin-resistant Staphylococcus aureus ATCC 33591. In kind it is functional, organism-based.

As to `C/C(=C/c1ccccc1)Cn1cc(CCCCCc2nc(N)[nH]c2-c2ccc(F)cc2)nn1`, the IC50 (commonly the point on the concentration scale where inhibition reaches its midpoint) in the test on Staphylococcus aureus [1] is 1340 nM. Besides, in the test with Staphylococcus aureus [2], the “fold change (FC)” value amounted to 2.
With `CN[C@H](CC(C)C)C(=O)N[C@@H]1Cc2ccc(c(Cl)c2)Oc2cc3cc(c2O[C@@H]2O[C@H](CO)[C@@H](O)[C@H](O)[C@H]2O[C@H]2C[C@](C)(N)[C@H](O)[C@H](C)O2)Oc2ccc(cc2Cl)[C@@H](O)[C@@H]2NC(=O)[C@H](NC(=O)[C@@H]3NC(=O)[C@H](CC(=O)O)NC1=O)c1ccc(O)c(c1)-c1c(O)cc(O)cc1[C@H](C(=O)NCCCn1cc(CNC(=O)[C@@H]3NC(=O)[C@H]4NC(=O)[C@H](NC(=O)[C@@H]5NC(=O)[C@H](CC(=O)O)NC(=O)[C@H](NC(=O)[C@@H](CC(C)C)NC)Cc6ccc(c(Cl)c6)Oc6cc5cc(c6O[C@@H]5O[C@H](CO)[C@@H](O)[C@H](O)[C@H]5O[C@H]5C[C@](C)(N)[C@H](O)[C@H](C)O5)Oc5ccc(cc5Cl)[C@H]4O)c4ccc(O)c(c4)-c4c(O)cc(O)cc43)nn1)NC2=O`, in the test with Staphylococcus aureus [3], the MIC (as a rule, the lowest concentration found to suppress growth) is 1.3 µg/mL (≈ 0.435 µM).
On to `C/C(=C/c1ccccc1)Cn1cc(CCCCCc2nc(N)[nH]c2-c2cc(F)cc(F)c2)nn1`, for which, in the test on Staphylococcus aureus [1], the concentration for half-maximal inhibition (IC50) is 1340 nM. Also, in the test on Staphylococcus aureus [2], the “fold change (FC)” value stood at 2.
On the same counts, the results for `CCCCCCCCCCCC/C=C(/C)Cn1cc(CCCCCc2nc(N)[nH]c2-c2ccccc2)nn1` are 1420 nM and 2.
On the same counts, the results for `C/C(=C/c1ccccc1)Cn1cc(CCCCCc2nc(N)[nH]c2-c2ccc(C(C)C)cc2)nn1` are 1340 nM and 2.
In the test with Staphylococcus aureus [3], `CN[C@H](CC(C)C)C(=O)N[C@@H]1Cc2ccc(c(Cl)c2)Oc2cc3cc(c2O[C@@H]2O[C@H](CO)[C@@H](O)[C@H](O)[C@H]2O[C@H]2C[C@](C)(N)[C@H](O)[C@H](C)O2)Oc2ccc(cc2Cl)[C@@H](O)[C@@H]2NC(=O)[C@H](NC(=O)[C@@H]3NC(=O)[C@H](CC(=O)O)NC1=O)c1ccc(O)c(c1)-c1c(O)cc(O)cc1[C@H](C(=O)NCCn1cc(CNC(=O)[C@@H]3NC(=O)[C@H]4NC(=O)[C@H](NC(=O)[C@@H]5NC(=O)[C@H](CC(=O)O)NC(=O)[C@H](NC(=O)[C@@H](CC(C)C)NC)Cc6ccc(c(Cl)c6)Oc6cc5cc(c6O[C@@H]5O[C@H](CO)[C@@H](O)[C@H](O)[C@H]5O[C@H]5C[C@](C)(N)[C@H](O)[C@H](C)O5)Oc5ccc(cc5Cl)[C@H]4O)c4ccc(O)c(c4)-c4c(O)cc(O)cc43)nn1)NC2=O` had a minimum inhibitory concentration (MIC) of 1.3 µg/mL (≈ 0.437 µM).
In the test on Staphylococcus aureus [1], `CCCc1ccc(/C=C(/C)Cn2cc(CCCCCc3nc(N)[nH]c3-c3ccccc3)nn2)cc1` yielded a half-maximal inhibitory concentration (IC50) of 1420 nM. For the same compound, the “fold change (FC)” value in the test on Staphylococcus aureus [2] is on record as 2.
`CN[C@H](CC(C)C)C(=O)N[C@@H]1Cc2ccc(c(Cl)c2)Oc2cc3cc(c2O[C@@H]2O[C@H](CO)[C@@H](O)[C@H](O)[C@H]2O[C@H]2C[C@](C)(N)[C@H](O)[C@H](C)O2)Oc2ccc(cc2Cl)[C@@H](O)[C@@H]2NC(=O)[C@H](NC(=O)[C@@H]3NC(=O)[C@H](CC(=O)O)NC1=O)c1ccc(O)c(c1)-c1c(O)cc(O)cc1[C@H](C(=O)NCCCCCc1cn(CCCCCNC(=O)[C@@H]3NC(=O)[C@H]4NC(=O)[C@H](NC(=O)[C@@H]5NC(=O)[C@H](CC(=O)O)NC(=O)[C@H](NC(=O)[C@@H](CC(C)C)NC)Cc6ccc(c(Cl)c6)Oc6cc5cc(c6O[C@@H]5O[C@H](CO)[C@@H](O)[C@H](O)[C@H]5O[C@H]5C[C@](C)(N)[C@H](O)[C@H](C)O5)Oc5ccc(cc5Cl)[C@H]4O)c4ccc(O)c(c4)-c4c(O)cc(O)cc43)nn1)NC2=O` came in with an MIC in the test with Staphylococcus aureus [3] of 1.3 µg/mL (≈ 0.423 µM).
The same measure, in the same setting: the same measure for `CN[C@H](CC(C)C)C(=O)N[C@@H]1Cc2ccc(c(Cl)c2)Oc2cc3cc(c2O[C@@H]2O[C@H](CO)[C@@H](O)[C@H](O)[C@H]2O[C@H]2C[C@](C)(N)[C@H](O)[C@H](C)O2)Oc2ccc(cc2Cl)[C@@H](O)[C@@H]2NC(=O)[C@H](NC(=O)[C@@H]3NC(=O)[C@H](CC(=O)O)NC1=O)c1ccc(O)c(c1)-c1c(O)cc(O)cc1[C@H](C(=O)NCCCCCCn1cc(CCCNC(=O)[C@@H]3NC(=O)[C@H]4NC(=O)[C@H](NC(=O)[C@@H]5NC(=O)[C@H](CC(=O)O)NC(=O)[C@H](NC(=O)[C@@H](CC(C)C)NC)Cc6ccc(c(Cl)c6)Oc6cc5cc(c6O[C@@H]5O[C@H](CO)[C@@H](O)[C@H](O)[C@H]5O[C@H]5C[C@](C)(N)[C@H](O)[C@H](C)O5)Oc5ccc(cc5Cl)[C@H]4O)c4ccc(O)c(c4)-c4c(O)cc(O)cc43)nn1)NC2=O`: 1.3 µg/mL (≈ 0.425 µM).
On the same count and under the same terms, for `CN[C@H](CC(C)C)C(=O)N[C@@H]1Cc2ccc(c(Cl)c2)Oc2cc3cc(c2O[C@@H]2O[C@H](CO)[C@@H](O)[C@H](O)[C@H]2O[C@H]2C[C@](C)(N)[C@H](O)[C@H](C)O2)Oc2ccc(cc2Cl)[C@@H](O)[C@@H]2NC(=O)[C@H](NC(=O)[C@@H]3NC(=O)[C@H](CC(=O)O)NC1=O)c1ccc(O)c(c1)-c1c(O)cc(O)cc1[C@H](C(=O)NCCCCCc1cn(CCCCNC(=O)[C@@H]3NC(=O)[C@H]4NC(=O)[C@H](NC(=O)[C@@H]5NC(=O)[C@H](CC(=O)O)NC(=O)[C@H](NC(=O)[C@@H](CC(C)C)NC)Cc6ccc(c(Cl)c6)Oc6cc5cc(c6O[C@@H]5O[C@H](CO)[C@@H](O)[C@H](O)[C@H]5O[C@H]5C[C@](C)(N)[C@H](O)[C@H](C)O5)Oc5ccc(cc5Cl)[C@H]4O)c4ccc(O)c(c4)-c4c(O)cc(O)cc43)nn1)NC2=O` the value was 1.3 µg/mL (≈ 0.425 µM).
Same read-out and setting: the same measure for `CN[C@H](CC(C)C)C(=O)N[C@@H]1Cc2ccc(c(Cl)c2)Oc2cc3cc(c2O[C@@H]2O[C@H](CO)[C@@H](O)[C@H](O)[C@H]2O[C@H]2C[C@](C)(N)[C@H](O)[C@H](C)O2)Oc2ccc(cc2Cl)[C@@H](O)[C@@H]2NC(=O)[C@H](NC(=O)[C@@H]3NC(=O)[C@H](CC(=O)O)NC1=O)c1ccc(O)c(c1)-c1c(O)cc(O)cc1[C@H](C(=O)NCCc1cn(CCNC(=O)[C@@H]3NC(=O)[C@H]4NC(=O)[C@H](NC(=O)[C@@H]5NC(=O)[C@H](CC(=O)O)NC(=O)[C@H](NC(=O)[C@@H](CC(C)C)NC)Cc6ccc(c(Cl)c6)Oc6cc5cc(c6O[C@@H]5O[C@H](CO)[C@@H](O)[C@H](O)[C@H]5O[C@H]5C[C@](C)(N)[C@H](O)[C@H](C)O5)Oc5ccc(cc5Cl)[C@H]4O)c4ccc(O)c(c4)-c4c(O)cc(O)cc43)nn1)NC2=O`: 1.3 µg/mL (≈ 0.435 µM).
In the test with Staphylococcus aureus [1], `C/C(=C/CC1CCCCC1)Cn1cc(CCCCCc2nc(N)[nH]c2-c2ccccc2)nn1` showed an IC50 of 1420 nM. Also, in the test on Staphylococcus aureus [2], the “fold change (FC)” value was 2.
Compound `CN[C@H](CC(C)C)C(=O)N[C@@H]1Cc2ccc(c(Cl)c2)Oc2cc3cc(c2O[C@@H]2O[C@H](CO)[C@@H](O)[C@H](O)[C@H]2O[C@H]2C[C@](C)(N)[C@H](O)[C@H](C)O2)Oc2ccc(cc2Cl)[C@@H](O)[C@@H]2NC(=O)[C@H](NC(=O)[C@@H]3NC(=O)[C@H](CC(=O)O)NC1=O)c1ccc(O)c(c1)-c1c(O)cc(O)cc1[C@H](C(=O)NCCCCCc1cn(CCNC(=O)[C@@H]3NC(=O)[C@H]4NC(=O)[C@H](NC(=O)[C@@H]5NC(=O)[C@H](CC(=O)O)NC(=O)[C@H](NC(=O)[C@@H](CC(C)C)NC)Cc6ccc(c(Cl)c6)Oc6cc5cc(c6O[C@@H]5O[C@H](CO)[C@@H](O)[C@H](O)[C@H]5O[C@H]5C[C@](C)(N)[C@H](O)[C@H](C)O5)Oc5ccc(cc5Cl)[C@H]4O)c4ccc(O)c(c4)-c4c(O)cc(O)cc43)nn1)NC2=O` gave an MIC against Staphylococcus aureus [3] of 1.3 µg/mL (≈ 0.429 µM).
Regarding `C/C(=C/c1ccccc1)Cn1cc(CCCCCc2nc(N)[nH]c2-c2ccc(-c3ccccc3)cc2)nn1`, it took 1340 nM to reach half-maximal inhibition in the test with Staphylococcus aureus [1] (IC50). Besides, the “fold change (FC)” value with Staphylococcus aureus [2] was 2.
